Results: patent US9145399B2, “Substituted bicyclic triazole derivatives as gamma secretase modulators” (Janssen Pharmaceuticals, Inc., priority 2010, dated 2015)

Key:
Aβ42 [1] = test: Screening for γ-secretase-modulating activity in SKNBE2 cells carrying APP 695 wild type: Aβ42 in cell supernatant (Alphalisa); type: cell-based; settings: overnight incubation
Summary of the method: (§1)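 SKNBE2 cells expressing wild-type APP695 were incubated overnight at 37° C with test compound at several concentrations. Aβ42 and Aβtotal in supernatant were measured by AlphaLISA sandwich immunoassays. IC50 came from 4-parameter non-linear fits of percent of compound-free control versus log concentration.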

Aβtotal [2] = test: Screening for γ-secretase-modulating activity in SKNBE2 cells carrying APP 695 wild type: Aβtotal in cell supernatant (Alphalisa); type: cell-based; settings: overnight incubation
Summary of the method: as §1

Aβ42 [3] = test: In vivo efficacy: Aβ42 lowering in brain of non-transgenic mice after single oral dose (ELISA); design: species or system mouse; settings: dose 30 mg/kg oral dosing, soluble brain fraction, animals sacrificed after 4 h, untreated animals (Ctrl) set at 100; for response vs control in vivo at 30 mg/kg: Mus musculus, read-out: Aβ42 (% vs Ctrl) _Mean
Description: (§2) To determine whether acute administration of an Aβ42 lowering agent would reduce Aβ42 levels in vivo, non-transgenic rodents, e.g. mice or rats were used. Animals treated with the Aβ42 lowering agent were examined and compared to those untreated or treated with vehicle and brain levels of soluble Aβ42 and total Aβ were quantitated by standard techniques, for example, using ELISA. Treatment periods varied from hours (h) to days and were adjusted based on the results of the Aβ42 lowering once a time course of onset of effect could be established.
(§3) A typical protocol for measuring Aβ42 lowering in vivo is shown but it is only one of many variations that could be used to optimize the levels of detectable Aβ. For example, Aβ42 lowering compounds were formulated in 20% of Captisol® (a sulfobutyl ether of β-cyclodextrin) in water or 20% hydroxypropyl β cyclodextrin. The Aβ42 lowering agents were administered as a single oral dose or by any acceptable route of administration to overnight fasted animals. After 4 h, the animals were sacrificed and Aβ42 levels were analysed.
(§4) Blood was collected by decapitation and exsanguinations in EDTA-treated collection tubes. Blood was centrifuged at 1900 g for 10 minutes (min) at 4° C. and the plasma recovered and flash frozen for later analysis. The brain was removed from the cranium and hindbrain. The cerebellum was removed and the left and right hemisphere were separated. The left hemisphere was stored at −18° C. for quantitative analysis of test compound levels. The right hemisphere was rinsed with phosphate-buffered saline (PBS) buffer and immediately frozen on dry ice and stored at −80° C. until homogenization for biochemical assays.
(§5) Mouse brains from non-transgenic animals were resuspended in 8 volumes of 0.4% DEA (diethylamine)/50 mM NaCl containing protease inhibitors (Roche-11873580001 or 04693159001) per gram of tissue, e.g. for 0.158 g brain, add 1.264 ml of 0.4% DEA. All samples were homogenized in the FastPrep-24 system (MP Biomedicals) using lysing matrix D (MPBio #6913-100) at 6 m/s for 20 seconds. Homogenates were centrifuged at 221.300×g for 50 min. The resulting high speed supernatants were then transferred to fresh eppendorf tubes. Nine parts of supernatant were neutralized with 1 part 0.5 M Tris-HCl pH 6.8 and used to quantify Aβtotal and Aβ42.
(§6) To quantify the amount of Aβtotal and Aβ42 in the soluble fraction of the brain homogenates, Enzyme-Linked-Immunosorbent-Assays were used. Briefly, the standards (a dilution of synthetic Aβ1-40 and Aβ1-42, Bachem) were prepared in 1.5 ml Eppendorf tube in Ultraculture, with final concentrations ranging from 10000 to 0.3 pg/ml. The samples and standards were co-incubated with HRPO-labelled N-terminal antibody for Aβ42 detection and with the biotinylated mid-domain antibody 4G8 for Aβtotal detection. 50 μl of conjugate/sample or conjugate/standards mixtures were then added to the antibody-coated plate (the capture antibodies selectively recognize the C-terminal end of Aβ42, antibody JRF/cAβ42/26, for Aβ42 detection and the N-terminus of Aβ, antibody JRF/rAβ/2, for Aβtotal detection). The plate was allowed to incubate overnight at 4° C. in order to allow formation of the antibody-amyloid complex. Following this incubation and subsequent wash steps the ELISA for Aβ42 quantification was finished by addition of Quanta Blu fluorogenic peroxidase substrate according to the manufacturer's instructions (Pierce Corp., Rockford, Il). A reading was performed after 10 to 15 min (excitation 320 nm/emission 420 nm).
In this model at least 20% Aβ42 lowering compared to untreated animals would be advantageous.
The results are shown in Table 4 (dose 30 mg/kg oral dosing) (value for untreated animals as control (Ctrl) was set at 100): […]

Aβtotal [4] = test: In vivo efficacy: Aβtotal in brain of non-transgenic mice after single oral dose (ELISA); design: species or system mouse; settings: dose 30 mg/kg oral dosing, soluble brain fraction, animals sacrificed after 4 h, untreated animals (Ctrl) set at 100; for response vs control in vivo at 30 mg/kg: Mus musculus, read-out: Aβtotal (% vs Ctrl)_Mean
Description: as §2, §3, §4, §5, §6
For Aβtotal detection, a Streptavidine-Peroxidase-Conjugate was added, followed 60 min later by an additional wash step and addition of Quanta Blu fluorogenic peroxidase substrate according to the manufacturer's instructions (Pierce Corp., Rockford, Ill). A reading was performed after 10 to 15 min (excitation 320 nm/emission 420 nm). […]

[5] = Homo sapiens, SKNBE2, SKNBE2 cells carrying APP 695 wild type

Structure (SMILES)	IC50 (Aβ42 [1]; [5]) [µM]	IC50 (Aβtotal [2]; Homo sapiens) [µM]	response vs control in vivo at 30 mg/kg (Aβ42 [3]) [%]	response vs control in vivo at 30 mg/kg (Aβtotal [4]) [%]	melting point [°C]	IC50 (Aβ42 [1]; SKNBE2 cells carrying APP 695 wild type) [µM]	IC50 (Aβtotal [2]) [µM]	Aβ42 (% vs Ctrl) _Mean (Aβ42 [3]) [% vs Ctrl]	Aβtotal (% vs Ctrl)_Mean (Aβtotal [4]) [% vs Ctrl]
COc1cc(Nc2nc3n(n2)CCCC3c2ccccc2Cl)ccc1-c1ccnc(C)c1 (racemic) [Compound 66, 8-(2-chlorophenyl)-5,6,7,8-tetrahydro-N-[3-methoxy-4-(2-methyl-4-pyridinyl)phenyl]-[1,2,4]triazolo[1,5-a]pyridin-2-amine]	0.035	9.12	54	92	–	–	–	–	–
COc1cc(Nc2nc3c(-c4ccccc4C(F)(F)F)cccn3n2)ccc1-n1cnc(C)n1 [Compound 3, N-[3-methoxy-4-(3-methyl-1H-1,2,4-triazol-1-yl)phenyl]-8-[2-(trifluoromethyl)phenyl]-[1,2,4]triazolo[1,5-a]pyridin-2-amine]	0.019	> 10	75	95	195.5	–	–	–	–
COc1cc(Nc2nc3n(n2)CCN(C)C3c2ccccc2C(F)(F)F)ccc1-n1cnc(C)c1 (stereo not shown) [Compound 13, 5,6,7,8-tetrahydro-N-[3-methoxy-4-(4-methyl-1H-imidazol-1-yl)phenyl]-7-methyl-8-[2-(trifluoromethyl)phenyl]-[1,2,4]triazolo[1,5-a]pyrazin-2-amine]	0.009	7.76	93	100	–	–	–	–	–
COc1cc(Nc2nc3n(n2)CCN(C(C)=O)C3c2ccccc2C(F)(F)F)ccc1-n1cnc(C)c1 (stereo not shown) [Compound 14, 7-acetyl-5,6,7,8-tetrahydro-N-[3-methoxy-4-(4-methyl-1H-imidazol-1-yl)phenyl]-8-[2-(trifluoromethyl)phenyl]-[1,2,4]triazolo[1,5-a]pyrazin-2-amine]	0.066	> 10	101	119	–	–	–	–	–
COc1cc(Nc2nc3n(n2)CCC[C@@H]3c2ccccc2Cl)ccc1-n1cnc(C)c1 [Compound 28, (8R)-8-(2-chlorophenyl)-5,6,7,8-tetrahydro-N-[3-methoxy-4-(4-methyl-1H-imidazol-1-yl)phenyl]-[1,2,4]triazolo[1,5-a]pyridin-2-amine]	0.016	5.13	81	93	195	–	–	–	–
Cc1cc(-c2ccc(Nc3nc4n(n3)CCCC4c3ccccc3C(F)(F)F)cc2)ccn1 (stereo not shown) [Compound 42, 5,6,7,8-tetrahydro-N-[4-(2-methyl-4-pyridinyl)phenyl]-8-[2-(trifluoromethyl)phenyl]-[1,2,4]triazolo[1,5-a]pyridin-2-amine]	0.023	> 10	58	83	–	–	–	–	–
COc1cc(Nc2nc3n(n2)CCCC3c2ccccc2C(F)(F)F)ccc1-c1ccnc(C)c1 (stereo not shown) [Compound 43, 5,6,7,8-tetrahydro-N-[3-methoxy-4-(2-methyl-4-pyridinyl)phenyl]-8-[2-(trifluoromethyl)phenyl]-[1,2,4]triazolo[1,5-a]pyridin-2-amine]	0.016	7.08	71	87	–	–	–	–	–
FC(F)(F)c1ccccc1C1CCCn2nc(Nc3ccc(-c4cccnc4)cc3)nc21 (stereo not shown) [Compound 46, 5,6,7,8-tetrahydro-N-[4-(3-pyridinyl)phenyl]-8-[2-(trifluoromethyl)phenyl]-[1,2,4]triazolo[1,5-a]pyridin-2-amine]	5.25	> 10	61	98	–	–	–	–	–
COc1cc(Nc2nc3n(n2)C(c2ccccc2C(F)(F)F)CCC3)ccc1-c1ccnc(C)c1 (stereo not shown) [Compound 52, 5,6,7,8-tetrahydro-N-[3-methoxy-4-(2-methyl-4-pyridinyl)phenyl]-5-[2-(trifluoromethyl)phenyl]-[1,2,4]triazolo[1,5-a]pyridin-2-amine 1.8 HCl3H2O]	0.182	≥ 10	45	112	–	–	–	–	–
COc1cc(Nc2nc3n(n2)CCOC3c2ccccc2C(F)(F)F)ccc1-c1ccnc(C)c1 (stereo not shown) [Compound 65, 5,6-dihydro-N-[3-methoxy-4-(2-methyl-4-pyridinyl)phenyl]-8-[2-(trifluoromethyl)phenyl]-8H-[1,2,4]triazolo[5,1-c][1,4]oxazin-2-amine]	0.052	> 10	64	101	–	–	–	–	–
COc1ccc(C2CCCn3nc(Nc4ccc(-c5ccnc(C)c5)cc4)nc32)cc1F.Cl.O (stereo not shown) [Compound 105, 8-(3-fluoro-4-methoxyphenyl)-5,6,7,8-tetrahydro-N-[4-(2-methyl-4-pyridinyl)phenyl]-[1,2,4]triazolo[1,5-a]pyridin-2-amine.1.6HCl.2.4H2O]	–	–	–	–	–	0.056	> 10	51	99
Cc1cc(-c2ccc(Nc3nc4n(n3)CCCC4c3c(F)cccc3Cl)cc2)ccn1 (stereo not shown) [Compound 116, 8-(2-chloro-6-fluorophenyl)-5,6,7,8-tetrahydro-N-[4-(2-methyl-4-pyridinyl)phenyl]-[1,2,4]triazolo[1,5-a]pyridin-2-amine]	0.071	> 10	–	–	234.4	–	–	–	–
COc1cc(Nc2nc3n(n2)CCCC3c2cc(C(F)(F)F)ccc2C)ccc1-c1ccnc(C)c1 (stereo not shown) [Compound 151, 5,6,7,8-tetrahydro-N-[3-methoxy-4-(2-methyl-4-pyridinyl)phenyl]-8-[2-methyl-5-(trifluoromethyl)phenyl]-[1,2,4]triazolo[1,5-a]pyridin-2-amine]	0.031	7.08	–	–	146.8	–	–	–	–
COc1cc(Nc2nc3n(n2)CCCC3c2cc(C(F)(F)F)ccc2F)ccc1-c1ccnc(C)c1 (stereo not shown) [Compound 182, 8-[2-fluoro-5-(trifluoromethyl)phenyl]-5,6,7,8-tetrahydro-N-[3-methoxy-4-(2-methyl-4-pyridinyl)phenyl]-[1,2,4]triazolo[1,5-a]pyridin-2-amine]	0.044	> 10	–	–	173.1	–	–	–	–
COc1ccc(F)c(C2CCCn3nc(Nc4ccc(-c5ccnc(C)c5)cc4)nc32)c1 (stereo not shown) [Compound 183, 8-(2-fluoro-5-methoxyphenyl)-5,6,7,8-tetrahydro-N-[4-(2-methyl-4-pyridinyl)phenyl]-[1,2,4]triazolo[1,5-a]pyridin-2-amine]	0.041	> 10	–	–	204.6	–	–	–	–
COc1ccc(F)c(C2CCCn3nc(Nc4ccc(-c5ccnc(C)c5)c(F)c4)nc32)c1 (stereo not shown) [Compound 184, 8-(2-fluoro-5-methoxyphenyl)-N-[3-fluoro-4-(2-methyl-4-pyridinyl)phenyl]-5,6,7,8-tetrahydro-[1,2,4]triazolo[1,5-a]pyridin-2-amine]	0.023	> 10	–	–	221.5	–	–	–	–
